Assay results published in patent EP4813993A1, “COMPOUND, PREPARATION METHOD THEREFOR, AND USE THEREOF” (Sichuan Kelun Pharmaceutical Research Institute Co., Ltd., priority 2023, dated 2025).
One block for each molecule: values may come before it.

Assays:
[1] = Pharmacokinetic study in SD rats; type: in vivo; settings: for AUC(0-inf) / half-life / Cmax / Tmax / bioavailability: rat
Description: Experimental Example 2: Pharmacokinetic study of compounds in SD rats
Experimental animals: SD rats, male, 6-8 weeks old.
(§1) Compound preparation: 5% (final preparation volume) of DMSO was added to dissolve the test compound, and then 10% (final preparation volume) of Cremophor EL and 85% Saline were sequentially added.
(§2) Experimental design: The test compounds were administered to SD rats as a single dose via intravenous and oral administration, respectively (injection: 2 mg/kg; oral administration: 10 mg/kg; n = 3). The injection group was given free access to food and water. The oral group was fasted overnight (> 12 h) with free access to water, and was fed 4 h after administration. Blood samples were collected from the jugular vein of SD rats at the following time points: 5 min, 15 min, 0.5 h, 1 h, 2 h, 4 h, 8 h, and 24 h after injection administration; 15 min, 0.5 h, 1 h, 2 h, 4 h, 6 h, 8 h, and 24 h after oral administration. The collected blood samples were anticoagulated, placed in an ice bath, and then centrifuged at 6000 g for 5 min to separate plasma. The plasma samples were stored at -70 °C for analysis.
Sample monitoring: The concentrations of the designated compound drugs in plasma were determined by the LC-MS/MS method; the main pharmacokinetic parameters were calculated using the Winnolin 8.3 non-compartmental model.

[2] = tested on: acetic acid writhing model; experiment: Mouse acetic acid writhing model; type: in vivo, ICR mice; settings: for Number of writhing responses: ICR mice, 60 min before 0.8% acetic acid i.p., 30 min observation, Mean + SD, n = 10
Description: Experimental Example 11: Pharmacodynamic effect study of compounds in mouse acetic acid writhing model
Experimental animals: ICR mice, male, 20-24 g.
(§3) Compound preparation: 5% (final preparation volume) of DMSO was added to dissolve the test compound, and then 10% (final preparation volume) of Cremophor EL and 85% Saline were sequentially added; an appropriate amount of Etoricoxib was weighed, 5% (final preparation volume) of DMSO was added to dissolve the test compound, and then 5% (final preparation volume) of HS-15 and 90% Saline were sequentially added.
• 1. The mice were randomly grouped based on the body weight for model establishment, with 10 animals per group. A 0.8% (v/v) acetic acid solution was intraperitoneally injected at an injection volume of 10 mL/kg. • 2. Administration and test
Administration was performed 60 min before modeling. After the acetic acid solution was injected, the number of writhing responses in mice was observed. […] The number of writhing responses was observed and recorded during two intervals: 0-15 min and 15-30 min, with a total observation duration of 30 min. Inhibition rate = (number of writhing responses in control group - number of writhing responses in administration group)/number of writhing responses in control group × 100%. The model control group was given normal saline, the positive control group 1 was given etoricoxib at 20 mg/kg, the positive control group 2 was given VX-548 at 50 mg/kg, and the remaining groups were given the compounds of the present disclosure according to the administration doses in the table below.

Nav1.8 channels = target: T1, Nav1.8 channels (Homo sapiens, UniProt Q9Y5Y9); experiment: Manual patch-clamp, current of stably overexpressed Nav1.8 channels (resting state voltage program); type: cell-based; settings: for inhibition at 0.01 µM: concentration of 10 nM
T1 construct: expressed in transfected cells
T1 sequence (Q9Y5Y9 whole entry): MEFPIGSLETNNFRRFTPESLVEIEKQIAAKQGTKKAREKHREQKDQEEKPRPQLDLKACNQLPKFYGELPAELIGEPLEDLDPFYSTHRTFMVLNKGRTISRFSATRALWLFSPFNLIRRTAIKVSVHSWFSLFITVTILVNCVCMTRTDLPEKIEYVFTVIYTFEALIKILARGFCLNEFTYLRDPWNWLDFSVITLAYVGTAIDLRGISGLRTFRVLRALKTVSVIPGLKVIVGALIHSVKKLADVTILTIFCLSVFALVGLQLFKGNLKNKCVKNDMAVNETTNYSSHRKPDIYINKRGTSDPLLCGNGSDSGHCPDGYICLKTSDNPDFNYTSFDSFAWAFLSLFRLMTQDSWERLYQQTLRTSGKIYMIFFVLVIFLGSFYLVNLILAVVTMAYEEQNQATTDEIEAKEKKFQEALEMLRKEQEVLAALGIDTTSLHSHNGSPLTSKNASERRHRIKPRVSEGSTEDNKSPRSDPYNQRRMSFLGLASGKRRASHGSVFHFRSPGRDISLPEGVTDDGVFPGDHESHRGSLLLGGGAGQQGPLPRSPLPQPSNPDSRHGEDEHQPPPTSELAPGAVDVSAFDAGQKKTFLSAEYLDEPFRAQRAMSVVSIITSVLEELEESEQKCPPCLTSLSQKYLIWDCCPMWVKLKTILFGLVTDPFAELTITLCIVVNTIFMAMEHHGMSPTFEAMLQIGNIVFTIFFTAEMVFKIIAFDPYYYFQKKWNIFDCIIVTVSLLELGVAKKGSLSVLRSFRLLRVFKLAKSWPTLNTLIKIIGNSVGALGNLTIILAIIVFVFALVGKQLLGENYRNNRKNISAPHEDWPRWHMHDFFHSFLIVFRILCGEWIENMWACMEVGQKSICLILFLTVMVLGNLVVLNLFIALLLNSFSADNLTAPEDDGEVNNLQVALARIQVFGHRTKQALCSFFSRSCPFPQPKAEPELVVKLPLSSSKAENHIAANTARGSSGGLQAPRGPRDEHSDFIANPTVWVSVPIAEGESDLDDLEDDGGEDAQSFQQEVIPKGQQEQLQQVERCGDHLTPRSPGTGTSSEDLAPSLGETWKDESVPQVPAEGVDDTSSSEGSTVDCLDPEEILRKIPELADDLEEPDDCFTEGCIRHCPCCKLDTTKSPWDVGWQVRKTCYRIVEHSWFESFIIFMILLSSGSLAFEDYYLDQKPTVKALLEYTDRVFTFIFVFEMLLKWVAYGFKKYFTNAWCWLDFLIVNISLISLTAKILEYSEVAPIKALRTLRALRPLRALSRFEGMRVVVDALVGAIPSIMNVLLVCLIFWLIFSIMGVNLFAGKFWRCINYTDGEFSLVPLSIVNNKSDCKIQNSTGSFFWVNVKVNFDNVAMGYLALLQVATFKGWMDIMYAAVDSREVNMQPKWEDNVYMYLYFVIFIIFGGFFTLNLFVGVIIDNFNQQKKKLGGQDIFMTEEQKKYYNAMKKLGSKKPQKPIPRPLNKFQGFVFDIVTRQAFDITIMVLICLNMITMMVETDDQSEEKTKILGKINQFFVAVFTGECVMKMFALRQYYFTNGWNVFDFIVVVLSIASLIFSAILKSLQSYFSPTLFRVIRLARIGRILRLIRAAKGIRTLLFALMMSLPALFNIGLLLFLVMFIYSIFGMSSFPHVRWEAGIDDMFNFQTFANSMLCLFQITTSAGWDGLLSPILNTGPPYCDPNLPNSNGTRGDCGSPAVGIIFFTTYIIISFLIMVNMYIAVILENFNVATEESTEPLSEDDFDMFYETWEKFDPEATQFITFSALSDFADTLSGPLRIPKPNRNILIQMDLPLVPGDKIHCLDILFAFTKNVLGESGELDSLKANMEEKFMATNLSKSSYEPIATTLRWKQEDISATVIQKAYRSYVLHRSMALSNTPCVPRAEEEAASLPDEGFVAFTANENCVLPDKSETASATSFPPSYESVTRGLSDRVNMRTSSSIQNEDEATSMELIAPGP
How it was run: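 Whole-cell manual patch clamp on cells stably overexpressing Nav1.8, held at -120 mV and stepped to 0 mV for 50 ms every 20 s (resting-state protocol). Compounds were perfused in ascending concentrations, each for 5 min or until stable; block of peak current was calculated at steady state.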

[3] = Tissue distribution study (dorsal root ganglia) in ICR mice; type: in vivo; settings: male, mouse, oral administration 20 mg/kg
Description: Experimental Example 4: Tissue distribution study of compounds in ICR mice
(§4) Experimental animals: ICR mice, male, 6-8 weeks old.
as §1
Experimental design: The test compounds were administered to ICR mice as a single dose via oral administration (20 mg/kg; n = 3, 3 time points). Blood samples were collected at 0.25 h, 2 h, and 12 h after oral administration, followed by sacrifice of the animals. Dorsal root ganglia (DRG) were collected, rinsed with ice-cold normal saline to remove residual blood, blotted dry with absorbent paper, and stored at -70 °C for analysis.
Sample test: The concentrations of the compound drugs in dorsal root ganglia were determined by the LC-MS/MS method.

[4] = Pharmacokinetic study in ICR mice; type: in vivo; settings: male, mouse, plasma
Description: Experimental Example 3: Pharmacokinetic study of compounds in ICR mice
as §4, §1
as §2, with “The” for “Experimental design: The test compounds were administered to SD rats as a single dose via intravenous and oral administration, respectively (injection: 2 mg/kg; oral administration: 10 mg/kg; n = 3). The”, “of ICR mice” for “of SD rats”, “centrifuged” for “centrifuged at 6000 g”, “plasma was” for “plasma samples were”
Sample test: The concentrations of the designated compound drugs in plasma were determined by the LC-MS/MS method; the main pharmacokinetic parameters were calculated using the Winnolin 8.3 non-compartmental model. Pharmacokinetic test results of some compounds of the present disclosure in ICR mice

formalin pain model = experiment: Rat formalin pain model; type: in vivo, SD rats
Description: Experimental Example 10: Pharmacodynamic effect study of compounds in rat formalin pain model
Experimental animals: SD rats, male, 180-200 g.
as §3, with “added; the tramadol injection was diluted with normal saline to the desired concentration.” for “added.”
Each group consisted of 10 animals, and 50 µL of a 5% formalin solution was injected using a microsyringe into the right plantar region.
2. Administration and test
Based on different pharmacokinetic properties of the drugs, the administration was performed at 0 min, 60 min, and 120 min before modeling. After injection of the formalin, the number of pain responses in the rats was observed. […] Spontaneous pain responses were observed once every 5 min, and the number of pain responses in the rats within 1 min was counted, with a total observation duration of 60 min. Inhibition rate = (number of pain responses in control group - number of pain responses in administration group)/number of pain responses in control group × 100%.
Table 12. Administration information of compounds of the present disclosure in rat formalin model

[5] = in vivo, Oral administration, 10 mg/kg
[6] = Oral administration (p.o.), 20 mg/kg
[7] = male, plasma, Oral administration, 10 mg/kg
[8] = male, plasma, intravenous, Injection, 2 mg/kg

- AUC(0-inf) ([1]; in vivo, Injection, 2 mg/kg): 2650 ng·h/mL
- half-life ([1]; in vivo, Injection, 2 mg/kg): 2.64 h
- AUC(0-inf) [1, 5]: 4970 ng·h/mL
- Cmax [1, 5]: 577 ng/mL
- Tmax [1, 5]: 2 h
- bioavailability [1, 5]: 37.6%
- half-life [1, 5]: 3.26 h
SMILES: COc1c(C2C(C(=O)Nc3ccnc(C(N)=O)c3)OC(C)(C(F)(F)F)C2C)ccc(F)c1F (racemic) [VX-548(rac)]

SMILES: COc1c([C@@H]2C[C@](C)(C(F)(F)F)S[C@H]2C(=O)Nc2ccc3c(c2)COB3O)ccc(F)c1F [Compound 119-A, (2R,3S,5R)-3-(3,4-difluoro-2-methoxyphenyl)-N-(1-hydroxy-1,3-dihydrobenzo[c][1,2]oxaborol-5-yl)-5-methyl-5-(trifluoromethyl)tetrahydrothiophene-2-carboxamide]
- Number of writhing responses ([2]; Dose 50 mg/kg): 18 ± 15
- inhibition of the writhing effect compared with VX-548 ([2]; mouse acetic acid writhing model): better than VX-548
- IC50 (Nav1.8 channels): 490 pM
- concentration at 0.25 h [3]: 875 ng/g
- concentration at 2 h [3]: 2580 ng/g
- concentration at 12 h [3]: 199 ng/g
- AUC(0-inf) [4, 6]: 6740 ng·h/mL
- AUC(0-inf) ([4]; iv, Injection (i.v.), 2 mg/kg): 842 ng·h/mL

SMILES: COc1c(C2CC(C)(C(F)(F)F)SC2C(=O)Nc2ccnc(C(N)=O)c2)ccc(F)c1F (centres unmarked) [Compound 139, 4-(3-(3,4-difluoro-2-methoxyphenyl)-5-methyl-5-(trifluoromethyl)tetrahydrothiophene-2-carboxamido)picolinamide]
- t1/2, relative to VX-548 [1]: 2 times
- AUC(0-inf) [1, 7]: 9310 ng·h/mL
- Cmax [1, 7]: 724 ng/mL
- Tmax [1, 7]: 4 h
- bioavailability [1, 7]: 48.5%
- half-life [1, 7]: 6.29 h
- AUC(0-inf) [1, 8]: 3840 ng·h/mL
- half-life [1, 8]: 4.86 h
- exposure level after oral administration, relative to VX-548 ([1]; oral administration): 2 times
- IC50 (Nav1.8 channels): 200 pM
- inhibition at 0.01 µM (Nav1.8 channels; read-out: Inhibition rate %): 98.2%

- inhibition at 0.001 µM (Nav1.8 channels; concentration of 1 nM, read-out: Inhibition rate %): 86.9%
- concentration at 0.25 h [3]: 710 ng/g
- concentration at 2 h [3]: 7200 ng/g
- concentration at 12 h [3]: 2720 ng/g
- AUC(0-inf) ([4]; Oral administration, 10 mg/kg): 12500 ng·h/mL
- AUC(0-inf) ([4]; iv, Injection (i.v.), 2 mg/kg): 2050 ng·h/mL
SMILES: COc1c([C@@H]2C[C@](C)(C(F)(F)F)S[C@H]2C(=O)Nc2ccc3nnnn3c2)ccc(F)c1F [Compound 202-A, (2R,3S,5R)-3-(3,4-difluoro-2-methoxyphenyl)-5-methyl-N-(tetrazolo[1,5-a]pyridin-6-yl)-5-(trifluoromethyl)tetrahydrothiophene-2-carboxamide]

- IC50 (Nav1.8 channels): 20 pM
- concentration at 0.25 h [3]: 511 ng/g
- concentration at 2 h [3]: 2360 ng/g
- concentration at 12 h [3]: 635 ng/g
- AUC(0-inf) [4, 6]: 50600 ng·h/mL
- AUC(0-inf) ([4]; iv, Injection (i.v.), 2 mg/kg): 7200 ng·h/mL
SMILES: COc1c([C@@H]2C[C@](C)(C(F)(F)F)S[C@H]2C(=O)Nc2cccc(S(N)(=O)=O)c2)ccc(F)c1F [Compound 223-A, (2R,3S,5R)-3-(3,4-difluoro-2-methoxyphenyl)-5-methyl-N-(3-sulfamoylphenyl)-5-(trifluoromethyl)tetrahydrothiophene-2-carboxamide]

- inhibition at 0.01 µM (Nav1.8 channels; read-out: Inhibition rate %): 97.7%
- concentration at 0.25 h [3]: 597 ng/g
- concentration at 2 h [3]: 6070 ng/g
- concentration at 12 h [3]: 2220 ng/g
- AUC(0-inf) ([4]; Oral administration, 10 mg/kg): 18600 ng·h/mL
- AUC(0-inf) ([4]; iv, Injection (i.v.), 2 mg/kg): 3480 ng·h/mL
SMILES: COc1c([C@@H]2C[C@](C)(C(F)(F)F)S[C@H]2C(=O)Nc2ccnc(C#N)c2)ccc(F)c1F [Compound 242-A, (2R,3S,5R)-N-(2-cyanopyridin-4-yl)-3-(3,4-difluoro-2-methoxyphenyl)-5-methyl-5-(trifluoromethyl)tetrahydrothiophene-2-carboxamide]

SMILES: Cc1ccc(-c2ncc(Cl)cc2-c2ccc(S(C)(=O)=O)cc2)cn1 [Etoricoxib]
- Number of pain responses 0 min (formalin pain model; SD rats, 30 mg/kg p.o. 60 min before 5% formalin, 0 min, Mean + SD, n = 10): 37.5±9.2
- Number of pain responses 10 min (formalin pain model; SD rats, 30 mg/kg p.o. 60 min before 5% formalin, 10 min, Mean + SD, n = 10): 2.0±2.4
- Number of pain responses 15 min (formalin pain model; SD rats, 30 mg/kg p.o. 60 min before 5% formalin, 15 min, Mean + SD, n = 10): 10.1±4.0
- Number of pain responses 30 min (formalin pain model; SD rats, 30 mg/kg p.o. 60 min before 5% formalin, 30 min, Mean + SD, n = 10): 14.3±5.3
- Number of pain responses 40 min (formalin pain model; SD rats, 30 mg/kg p.o. 60 min before 5% formalin, 40 min, Mean + SD, n = 10): 10.8±6.2
- Number of pain responses 50 min (formalin pain model; SD rats, 30 mg/kg p.o. 60 min before 5% formalin, 50 min, Mean + SD, n = 10): 5.1±8.5
- Number of pain responses 60 min (formalin pain model; SD rats, 30 mg/kg p.o. 60 min before 5% formalin, 60 min, Mean + SD, n = 10): 3.3±3.7
- analgesic activity in the first and second phases (formalin pain model; rat formalin pain model, first phase immediately after injection, second phase about 15-20 min after): superior analgesic effects in the first and second phases, respectively
- Number of writhing responses ([2]; Dose 20 mg/kg): 29 ± 11
